Assay results reported in patent US8629277B2, “Styrenyl 1,2,4-oxadiazole compounds” (Piramal Enterprises Limited, priority 2010, dated 2014).

Key:
Assay type in all cases: cell-based
CRKL protein [1] = assay: Inhibition of phosphorylation of CRKL protein, Western blot, Y253H cell line; settings: FIG. 6B
Procedure: (§1) Phospho-CRKL monitoring has been recognized as a prognostic marker in CML patients treated with first and second generation Bcr-Abl inhibitors (Haematologica, 2008, 93, 5, 765-769). The assay was carried out using Western blot analysis according to the reference, Analytical Biochemistry, 1981, 112, 2, 195-203, with certain modifications.
(§2) Western blot analysis was performed to decipher the mechanism of action of compounds of the present invention. […] The cells were incubated in a humidified incubator for 2-4 h at 37° C. Subsequently, cells were treated with respective concentrations of the compounds. Cells were then incubated for 72 h. Following the incubation, cells were harvested, washed with ice-cold phosphate buffered saline (PBS) and lysed with cold Cell Lytic buffer (Sigma Aldrich) supplemented with complete protease inhibitor cocktail (Roche, Germany). The protein extracts were obtained after centrifugation at 14,000 rpm at 4° C. (30 min). Aliquots of the resulting extracts were analyzed for their protein content using Bradford Reagent (Sigma) as per the manufacturer's instructions. Equivalent protein samples (70 μg) were loaded on 10% Tris-glycine gels and resolved at 100 V for 2 h in a buffered solution (24.9 mM Tris base, 250 mM glycine, 0.1% SDS (sodium dodecyl sulfate)). […]

CRKL protein [2] = assay: Inhibition of phosphorylation of CRKL protein, Western blot, E255V cell line; settings: 72 h, FIG. 5, FIG. 6B
Procedure: as §1, §2

CRKL protein [3] = assay: Inhibition of phosphorylation of CRKL protein, Western blot, M351T cell line; settings: FIG. 6B
Procedure: as §1, §2

CCCc1noc(C=Cc2ccc(O)c(O)c2)n1 [Compound of Example 3, 4-[2-(3-Propyl-[1,2,4]oxadiazol-5-yl)-vinyl]-benzene-1,2-diol]
inhibit: phospho-CRKL (CRKL protein [1]) | phosphorylation of CRKL protein (Tyr-207) (CRKL protein [2]) | phospho-CRKL (CRKL protein [3])
